# How the values were obtained:
# small intestinal injury [1] = settings: Non-Patent Literature 1 (Wallace et al., Gastroenterology 2011); cited from earlier work
# small intestinal injury [2] = settings: rat, in vivo
# Method: (§1) The animals were allowed to free access to a solid diet (CE-2, CLEA Japan, Inc.) and tap water.
# (§2) At the start of the experiments, the blood was collected from the tail vein with hematocrit capillary tubes (Thermo Fisher Scientific K.K.) to measure hematocrit values. […] After grouping, the body weight of the animals was measured for nine days, and one of the PPIs (10 mg/kg) was intraperitoneally administered twice a day. For the normal group and the NSAID alone administration groups, vehicle was administered instead of the PPIs. From day 6 of PPI administration, one of the NSAIDs (10 mg/kg) was administered by oral gavage twice a day. For the normal group, vehicle was administered instead of the NSAIDs. For the bifidobacteria administration groups, one strain of the bacteria (1×10^9 cfu (colony forming unit)/animal) was further administered by oral gavage once a day. For the other groups, physiological saline was administered instead of the bifidobacteria. On the final day of the experiments, the hematocrit values were measured again, and the difference between the start and the end of the experiments was calculated and expressed as the rate of change of the hematocrit values. In aspirin administration experiments, the animals were fed with a high-fructose diet (EPS EKISHIN Co., Ltd) from the starting day of PPI administration.
# (§3) Bifidobacteria administration was not performed. […]
# small intestinal injury [3] = assay: Comparative Example 1: degree of small intestinal injury induction by sulindac and omeprazole, rate of change of hematocrit values; settings: rats; sulindac as NSAID + omeprazole as PPI; no bifidobacteria; FIG. 10
# Method: as §1, §2, §3
# [4] = system: small intestinal injury induced by NSAID and PPI; assay: Test 1: inhibitory effects on NSAID and PPI induced small intestinal injury, rate of change of hematocrit values; type: in vivo, Wister male rats; settings: rats, bacteria 1×10^9 cfu/animal oral once a day
# Method: Frozen stocks of the following bacterial strains were statically cultured in GAM broth at 37° C. for 24 hours: the Bifidobacterium bifidum G9-1 strain (B. bifidum G9-1) (Accession No. NITE BP-817), the Bifidobacterium longum reference strain JCM (registered trademark) 1217^T (B. longum JCM 1217) (purchased from Japan Collection of Microorganisms (JCM), RIKEN BioResource Research Center), and the Bifidobacterium infantis reference strain JCM 1222T (B. infantis JCM 1222) (purchased from JCM). Each of the bacterial liquid cultures was inoculated into fresh GAM broth at a ratio (by volume) of liquid culture to GAM broth of 1:100, and statically cultured at 37° C. for 24 hours. […]
# Small intestinal injury was induced by a combination of (S)-(+)-2-(6-methoxy-2-naphthyl)propionic acid (naproxen, Tokyo Chemical Industry Co., Ltd., dissolved in a 5% NaHCO3 solution; also called NAP) and omeprazole (omz) or by a combination of ibuprofen (Ibu) and omeprazole (omz). […] That is, the effect of B. bifidum on recovery from small intestinal injury induced by ibuprofen and omeprazole when compared with the effect of B. bifidum on recovery from small intestinal injury induced by naproxen and omeprazole was calculated by the following formula, taking the latter effect as 1.
molecule,measurement,setting,value
"COc1ccc2cc([C@H](C)C(=O)O)ccc2c1 [Naproxen, (S)-(+)-2-(6-methoxy-2-naphthyl)propionic acid]",induction of small intestinal injury by naproxen in combination with omeprazole,small intestinal injury [1],induce small intestinal injury
CC1=C(CC(=O)O)c2cc(F)ccc2/C1=C\c1ccc([S+](C)[O-])cc1 (centres unmarked) [sulindac],induction of small intestinal injury by combination of sulindac and omeprazole,small intestinal injury [2],does not induce small intestinal injury
same,reduction of the hematocrit values induced by sulindac in combination with omeprazole,small intestinal injury [3],did not induce reduction of the hematocrit values
Bifidobacterium longum,inhibitory effect on small intestinal injury (hematocrit reduction) induced by ibuprofen and lansoprazole,"[4]; ibuprofen 10 mg/kg oral + lansoprazole 10 mg/kg i.p. twice a day, FIG. 7",higher inhibitory effect
same,inhibitory effect on small intestinal injury (hematocrit reduction) induced by ibuprofen and omeprazole,"[4]; ibuprofen 10 mg/kg oral + omeprazole 10 mg/kg i.p. twice a day, FIG. 4",higher inhibitory effect

# Source: US11219650B2, “Agent for preventing or treating small intestinal injury induced by specific NSAID and PPI” (priority 2018, dated 2022)
